# Laboratory results: patent US20090036422A1 (priority 2007, published 2009)
# Counter-ions that a name gives are not always drawn.
# Target: T1, human orexin-2 (hOX2) receptor (Homo sapiens, UniProt O43614)
# T1 construct: expressed in transfected cells
# T1 sequence (O43614 1-444): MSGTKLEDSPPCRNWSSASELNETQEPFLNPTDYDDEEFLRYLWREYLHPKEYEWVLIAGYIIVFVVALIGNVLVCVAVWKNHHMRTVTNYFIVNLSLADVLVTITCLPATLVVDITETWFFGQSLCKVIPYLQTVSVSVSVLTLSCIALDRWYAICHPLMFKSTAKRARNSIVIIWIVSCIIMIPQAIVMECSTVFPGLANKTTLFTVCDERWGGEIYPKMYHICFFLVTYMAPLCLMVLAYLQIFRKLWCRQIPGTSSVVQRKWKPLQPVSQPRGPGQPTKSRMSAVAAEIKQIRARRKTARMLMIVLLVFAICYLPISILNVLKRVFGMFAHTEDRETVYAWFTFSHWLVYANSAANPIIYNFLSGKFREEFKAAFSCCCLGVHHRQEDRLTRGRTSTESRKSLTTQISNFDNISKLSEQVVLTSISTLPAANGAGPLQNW
# Experiment: Intracellular Ca2+ mobilization assay (FLIPR), CHO(dHFr-) cells expressing hOX2, orexin-A at EC80 as agonist
# Type: cell-based
# Conditions: Kb=IC50/(1+[A]/EC50); CHO(dHFr-)-OX2R cells, antagonist applied 25 min before orexin-A EC80
# Method: Intracellular Ca^2+ Mobilization Assay
# The Chinese Hamster Ovary (dHFr−) mutant cell line stably expressing human orexin-1 (hOX1) or human orexin-2 (hOX2) receptors were maintained in Dulbecco's Modified Eagle Medium (1×) with GlutaMax™ 1, 4500 mg/L D-Glucose and Sodium Pyruvate (Catalog No. 31966-021, Invitrogen, Carlsbad, Calif.), 5% dialyzed fetal calf serum (Catalog No. 26400-044), 100 μg/ml penicillin and 100 μg/ml streptomycin. The cells were seeded at 5×10^4 cells/well in the poly-D-lysine treated, 96-well, black/clear-bottomed plates (Catalog No. BD356640, BD Biosciences, Palo Alto, Calif.). 24 h later, the cells were loaded for 1 h at 37° C. with 4 μM Flou-4 acetoxymethyl ester (Catalog No. F-14202, Molecular Probes, Eugene, Oreg.) in FLIPR buffer (1×HBSS, 20 mM HEPES, 2.5 mM Probenecid). Hanks' Balanced Salt Solution (HBSS) (10×) (catalog No. 14065-049) and HEPES (1M) (catalog No. 15630-056) were purchased from Invitrogen, Carlsbad, Calif. Probenecid (250 mM) (catalog No. P8761) was from Sigma, Buchs, Switzerland. The cells were washed five times with FLIPR buffer to remove excess dye and intracellular calcium mobilization, [Ca^2+]i were measured using a Fluorometric Imaging Plate Reader (FLIPR-96, Molecular Devices, Menlo Park, Calif.) as described previously (Malherbe et al., Mol. Pharmacol., 64, 823-832, 2003). Orexin A (catalog No. 1455, Toris Cookson Ltd, Bristol, UK) was used as agonist. Orexin A (50 mM stock solution in DMSO) was diluted in FLIPR buffer +0.1% BSA. The EC50 and EC80 values of orexin-A were measured daily from standard agonist concentration-response curves in CHO(dHFr−) —OX1R and —OX2R cell lines. All compounds were dissolved in 100% DMSO. Inhibition curves were determined by addition of 11 concentrations (0.0001-10 μM) of inhibitory compounds and using EC80 value of orexin-A as agonist (a concentration which gave 80% of max agonist response, determined daily). The antagonists were applied 25 min (incubation at 37° C.) before the application of the agonist. Responses were measured as peak increase in fluorescence minus basal, normalized to the maximal stimulatory effect induced by EC80 value of orexin-A or orexin-B. Inhibition curves were fitted according to the Hill equation: y=100/(1+(x/IC50)^nH), where nH=slope factor using Excel-fit 4 software (Microsoft).
# Kb values were calculated according to the following equation Kb=IC50/(1+[A]/EC50) where A is the concentration of agonist added which is very close to agonist EC80 value, and IC50 and EC50 values were derived from the antagonist inhibition and orexin-A or B agonist curves, respectively.
row,Kb [µM],Compound
1,0.0579,"Cc1cccc(N(CCc2ccc(C(F)(F)F)cc2)C(=O)C(N)c2ccccc2)c1 (stereo not shown) [Example 70, 2-Amino-2-phenyl-N-m-tolyl-N-[2-(4-trifluoromethyl-phenyl)-ethyl]-acetamide]"
2,0.0023,"COc1ccc(N(CCc2ccc(C(F)(F)F)cc2)C(=O)[C@@H](NC2COC2)c2ccccc2)cc1OC [Example 72, (S)—N-(3,4-Dimethoxy-phenyl)-2-(oxetan-3-ylamino)-2-phenyl-N-[2-(4-trifluoromethyl-phenyl)-ethyl]-acetamide]"
3,0.0523,"COc1ccc(N(CCc2ccc(C(F)(F)F)cc2)C(=O)C(N)c2ccccc2)cc1 (stereo not shown) [Example 75, 2-Amino-N-(4-methoxy-phenyl)-2-phenyl-N-[2-(4-trifluoromethyl-phenyl)-ethyl]-acetamide]"
4,0.0444,"COc1ccc(CCN(C(=O)C(N)c2ccccc2)c2ccc(OC(F)(F)F)cc2)cc1OC (stereo not shown) [Example 78, 2-Amino-N-[2-(3,4-dimethoxy-phenyl)-ethyl]-2-phenyl-N-(4-trifluoromethoxy-phenyl)-acetamide]"
5,0.0698,"Cc1cc(N(CCc2ccc(C(F)(F)F)cc2)C(=O)C(N)c2ccccc2)ccc1F (stereo not shown) [Example 83, 2-Amino-N-(4-fluoro-3-methyl-phenyl)-2-phenyl-N-[2-(4-trifluoromethyl-phenyl)-ethyl]-acetamide]"
6,0.0666,"Cc1ccc(N(CCc2ccc(C(F)(F)F)cc2)C(=O)C(N)c2ccccc2)cc1C (stereo not shown) [Example 84, 2-Amino-N-(3,4-dimethyl-phenyl)-2-phenyl-N-[2-(4-trifluoromethyl-phenyl)-ethyl]-acetamide]"
7,0.0074,"COc1ccc(N(CCc2ccc(C(F)(F)F)cc2)C(=O)C(N)c2cccc(F)c2)cc1OC (stereo not shown) [Example 85, 2-Amino-N-(3,4-dimethoxy-phenyl)-2-(3-fluoro-phenyl)-N-[2-(4-trifluoromethyl-phenyl)-ethyl]-acetamide]"
8,0.0819,"Cc1ccc(CCN(C(=O)C(N)c2ccccc2)c2ccc(F)c(C)c2)cc1 (stereo not shown) [Example 88, 2-Amino-N-(4-fluoro-3-methyl-phenyl)-2-phenyl-N-(2-p-tolyl-ethyl)-acetamide]"
9,0.0241,"Cc1ccc(CCN(C(=O)C(N)c2ccccc2)c2ccc(C)c(C)c2)cc1 (stereo not shown) [Example 89, 2-Amino-N-(3,4-dimethyl-phenyl)-2-phenyl-N-(2-p-tolyl-ethyl)-acetamide]"
10,0.0888,"Cc1ccc(N(CCc2ccc(Cl)cc2)C(=O)C(N)c2ccccc2)cc1C (stereo not shown) [Example 93, 2-Amino-N-[2-(4-chloro-phenyl)-ethyl]-N-(3,4-dimethyl-phenyl)-2-phenyl-acetamide]"
11,0.0834,"NC(C(=O)N(CCc1ccc(C(F)(F)F)cc1)c1cccc(C2(O)COC2)c1)c1ccccc1 (stereo not shown) [Example 95, 2-Amino-N-[3-(3-hydroxy-oxetan-3-yl)-phenyl]-2-phenyl-N-[2-(4-trifluoromethyl-phenyl)-ethyl]-acetamide]"
12,0.0133,"CN[C@H](C(=O)N(CCc1ccc(C(F)(F)F)cc1)c1ccc(OC)c(OC)c1)c1ccccc1OC [Example 101, (S)—N-(3,4-Dimethoxy-phenyl)-2-(2-methoxy-phenyl)-2-methylamino-N-[2-(4-trifluoromethyl-phenyl)-ethyl]-acetamide hydrochloride]"
13,0.0053,"COc1ccc(N(CCc2ccc(C(F)(F)F)cc2)C(=O)[C@@H](N)c2ccccc2OC)cc1OC [Example 103, (S)-2-Amino-N-(3,4-dimethoxy-phenyl)-2-(2-methoxy-phenyl)-N-[2-(4-trifluoromethyl-phenyl)-ethyl]-acetamide hydrochloride]"
14,0.022,"COc1cc(N(CCc2ccc(C(F)(F)F)cc2)C(=O)C(N)c2ccccc2)ccc1F (stereo not shown) [Example 104, 2-Amino-N-(4-fluoro-3-methoxy-phenyl)-2-phenyl-N-[2-(4-trifluoromethyl-phenyl)-ethyl]-acetamide]"
15,0.0414,"NC(C(=O)N(CCc1ccc(C(F)(F)F)cc1)c1ccc(OC(F)F)cc1)c1ccccc1 (stereo not shown) [Example 105, 2-Amino-N-(4-difluoromethoxy-phenyl)-2-phenyl-N-[2-(4-trifluoromethyl-phenyl)-ethyl]-acetamide]"
16,0.0071,"Cc1ccc(CCN(C(=O)C(NCCO)c2ccccc2)c2ccc(C)c(C)c2)cc1 (stereo not shown) [Example 106, N-(3,4-Dimethyl-phenyl)-2-(2-hydroxy-ethylamino)-2-phenyl-N-(2-p-tolyl-ethyl)-acetamide]"
17,0.0509,"NC(C(=O)N(CCc1ccc(C(F)(F)F)cc1)c1cccc(OC(F)F)c1)c1ccccc1 (stereo not shown) [Example 107, 2-Amino-N-(3-difluoromethoxy-phenyl)-2-phenyl-N-[2-(4-trifluoromethyl-phenyl)-ethyl]-acetamide]"
18,0.0335,"COc1ccc(Cl)c(N(CCc2ccc(C(F)(F)F)cc2)C(=O)C(N)c2ccccc2)c1 (stereo not shown) [Example 110, 2-Amino-N-(2-chloro-5-methoxy-phenyl)-2-phenyl-N-[2-(4-trifluoromethyl-phenyl)-ethyl]-acetamide]"
19,0.0446,"COCC(C)NC(C(=O)N(CCc1ccc(C)cc1)c1ccc(C)c(C)c1)c1ccccc1 (stereo not shown) [Example 120, N-(3,4-Dimethyl-phenyl)-2-(2-methoxy-1-methyl-ethylamino)-2-phenyl-N-(2-p-tolyl-ethyl)-acetamide]"
20,0.0109,"Cc1ccc(CCN(C(=O)C(NCC(C)O)c2ccccc2)c2ccc(C)c(C)c2)cc1 (stereo not shown) [Example 121, N-(3,4-Dimethyl-phenyl)-2-(2-hydroxy-propylamino)-2-phenyl-N-(2-p-tolyl-ethyl)-acetamide]"
21,0.0225,"Cc1ccc(CCN(C(=O)C(NC(C)CO)c2ccccc2)c2ccc(C)c(C)c2)cc1 (stereo not shown) [Example 122, N-(3,4-Dimethyl-phenyl)-2-(2-hydroxy-1-methyl-ethylamino)-2-phenyl-N-(2-p-tolyl-ethyl)-acetamide]"
22,0.0727,"Cc1ccc(CCN(C(=O)C(NC(CO)C(C)C)c2ccccc2)c2ccc(C)c(C)c2)cc1 (stereo not shown) [Example 123, N-(3,4-Dimethyl-phenyl)-2-(1-hydroxymethyl-2-methyl-propylamino)-2-phenyl-N-(2-p-tolyl-ethyl)-acetamide]"
23,0.0267,"CCC(COC)NC(C(=O)N(CCc1ccc(C)cc1)c1ccc(C)c(C)c1)c1ccccc1 (stereo not shown) [Example 125, N-(3,4-Dimethyl-phenyl)-2-(1-methoxymethyl-propylamino)-2-phenyl-N-(2-p-tolyl-ethyl)-acetamide]"
24,0.0086,"CC(=O)NCCNC(C(=O)N(CCc1ccc(C)cc1)c1ccc(C)c(C)c1)c1ccccc1 (stereo not shown) [Example 126, 2-(2-Acetylamino-ethylamino)-N-(3,4-dimethyl-phenyl)-2-phenyl-N-(2-p-tolyl-ethyl)-acetamide]"
25,0.0222,"Cc1ccc(CCN(C(=O)C(NCC2CCCO2)c2ccccc2)c2ccc(C)c(C)c2)cc1 (stereo not shown) [Example 127, N-(3,4-Dimethyl-phenyl)-2-phenyl-2-[(tetrahydro-furan-2-ylmethyl)-amino]-N-(2-p-tolyl-ethyl)-acetamide]"
26,0.0173,"COC(CNC(C(=O)N(CCc1ccc(C)cc1)c1ccc(C)c(C)c1)c1ccccc1)OC (stereo not shown) [Example 129, 2-(2,2-Dimethoxy-ethylamino)-N-(3,4-dimethyl-phenyl)-2-phenyl-N-(2-p-tolyl-ethyl)-acetamide]"
27,0.0416,"Cc1ccc(CCN(C(=O)C(NCc2ccco2)c2ccccc2)c2ccc(C)c(C)c2)cc1 (stereo not shown) [Example 130, N-(3,4-Dimethyl-phenyl)-2-[(furan-2-ylmethyl)-amino]-2-phenyl-N-(2-p-tolyl-ethyl)-acetamide]"
28,0.022,"CCC(O)CNC(C(=O)N(CCc1ccc(C)cc1)c1ccc(C)c(C)c1)c1ccccc1 (stereo not shown) [Example 131, N-(3,4-Dimethyl-phenyl)-2-(2-hydroxy-butylamino)-2-phenyl-N-(2-p-tolyl-ethyl)-acetamide]"
